In patent publication US11976057B2, “MrgX2 antagonists” (GlaxoSmithKline Intellectual Property Development Limited, priority 2020, dated 2024):
Counter-ions that a name gives are not always drawn.

Target: T1, human MRGPRX2 (Homo sapiens, UniProt Q96LB1)
T1 sequence (Q96LB1 1-330): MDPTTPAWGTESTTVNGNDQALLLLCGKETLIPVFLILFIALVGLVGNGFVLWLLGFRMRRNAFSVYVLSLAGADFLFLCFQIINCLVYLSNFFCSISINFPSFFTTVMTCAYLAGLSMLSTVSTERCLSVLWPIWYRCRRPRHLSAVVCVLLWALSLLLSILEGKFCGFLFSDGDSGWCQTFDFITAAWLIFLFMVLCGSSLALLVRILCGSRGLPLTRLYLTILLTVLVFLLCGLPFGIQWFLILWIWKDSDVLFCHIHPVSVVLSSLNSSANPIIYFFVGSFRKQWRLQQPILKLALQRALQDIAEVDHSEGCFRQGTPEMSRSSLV
Assay: Ca2+ mobilization assay (FLIPR TETRA): inhibition of Cortistatin-14 mediated MRGPRX2 activation

Compound | IC50 [nM]
CC(C(=O)Nc1ncc(Oc2ccc(F)cn2)cc1F)N1CCC(F)(F)[C@@H](c2ccc(=O)[nH]c2)C1 (stereo partly drawn) [Example 91, 2-((S)-4,4-difluoro-3-(6-oxo-1,6-dihydropyridin-3-yl)piperidin-1-yl)-N-(3-fluoro-5-((5-fluoropyridin-2-yl)oxy)pyridin-2-yl)propanamide] | 100 to 3160
C[C@H]1C[C@@H](c2ccc(=O)[nH]n2)CN([C@@H](C)C(=O)Nc2ccc(F)cn2)C1 [Example 162, (S)—N-(5-fluoropyridin-2-yl)-2-((3S,5R)-3-methyl-5-(6-oxo-1,6-dihydropyridazin-3-yl)piperidin-1-yl)propanamide] | 100 to 3160
CC(N)c1cc(C2CN([C@@H](C)C(=O)Nc3ccc(OCC4CC4)nn3)CCC2(F)F)c[nH]c1=O (stereo partly drawn) [Example 222, (2S)-2-(3-(5-(1-aminoethyl)-6-oxo-1,6-dihydropyridin-3-yl)-4,4-difluoropiperidin-1-yl)-N-(6-(cyclopropylmethoxy)pyridazin-3-yl)propanamide] | 10 to 100
CC(C(=O)Nc1ccc(Cc2ccccn2)cn1)N1CCC(F)(F)[C@@H](c2ccc(=O)[nH]c2)C1 (stereo partly drawn) [Example 57, 2-((S)-4,4-difluoro-3-(6-oxo-1,6-dihydropyridin-3-yl)piperidin-1-yl)-N-(5-(pyridin-2-ylmethyl)pyridin-2-yl)propanamide hydrochloride] | 100 to 3160
CC(C(=O)Nc1ccc(-c2ccon2)cn1)N1CCC(F)(F)[C@@H](c2ccc(=O)[nH]c2)C1 (stereo partly drawn) [Example 56, 2-((S)-4,4-difluoro-3-(6-oxo-1,6-dihydropyridin-3-yl)piperidin-1-yl)-N-(5-(isoxazol-3-yl)pyridin-2-yl)propanamide] | 3160 to 31600
COc1cccc(Oc2ccc(NC(=O)C(C)N3CCC(F)(F)[C@@H](c4ccc(=O)[nH]c4)C3)nc2)n1 (stereo partly drawn) [Example 95, 2-((S)-4,4-difluoro-3-(6-oxo-1,6-dihydropyridin-3-yl)piperidin-1-yl)-N-(5-((6-methoxypyridin-2-yl)oxy)pyridin-2-yl)propanamide] | 10 to 100
C[C@@H](C(=O)Nc1ccc(Cl)cn1)N1CCC(F)(F)[C@@H](c2ccc(=O)[nH]c2)C1 [Example 81, (S)-N-(5-chloropyridin-2-yl)-2-((S)-4,4-difluoro-3-(6-oxo-1,6-dihydropyridin-3-yl)piperidin-1-yl)propanamide] | 100 to 3160
COc1ccc(NC(=O)C(C)N2CCC(F)(F)[C@@H](c3ccc(=O)[nH]c3)C2)nn1 (stereo partly drawn) [Example 43, 2-((S)-4,4-difluoro-3-(6-oxo-1,6-dihydropyridin-3-yl)piperidin-1-yl)-N-(6-methoxy-pyridazin-3-yl)propanamide] | 3160 to 31600
C[C@@H](C(=O)Nc1ccc(C2CCC2)cn1)N1CCC(F)(F)[C@@H](c2ccc(=O)[nH]c2)C1 [Example 18, (S)-N-(5-cyclobutylpyridin-2-yl)-2-((S)-4,4-difluoro-3-(6-oxo-1,6-dihydropyridin-3-yl)piperidin-1-yl)propanamide] | 100 to 3160
C[C@@H](C(=O)Nc1ccc2ccccc2n1)N1CCC(F)(F)[C@@H](c2ccc(=O)[nH]c2)C1 [Example 54, (S)-2-((S)-4,4-difluoro-3-(6-oxo-1,6-dihydropyridin-3-yl)piperidin-1-yl)-N-(quinolin-2-yl)propanamide] | 100 to 3160
CC(C(=O)Nc1ccc(C(O)c2ccc(F)cc2)cn1)N1CCC(F)(F)[C@@H](c2cc[n+]([O-])cc2)C1 (stereo partly drawn) [Example 129, 4-((3S)-4,4-difluoro-1-(1-((5-((4-fluorophenyl) (hydroxy)methyl)pyridin-2-yl)amino)-1-oxopropan-2-yl)piperidin-3-yl)pyridine 1-oxide] | 3160 to 31600
CC(C(=O)Nc1ccc(Oc2ccc(C#N)cc2)cn1)N1CCC(F)(F)C(c2ccc(=O)[nH]c2)C1 (stereo not drawn) [Example 58, N-(5-(4-cyanophenoxy)pyridin-2-yl)-2-(4,4-difluoro-3-(6-oxo-1,6-dihydropyridin-3-yl)piperidin-1-yl)propanamide] | 100 to 3160
C[C@@H](C(=O)Nc1ccc(OCC2CC2)nn1)[C@H]1CCC(F)(F)[C@@H](c2ccc(=O)[nH]c2)C1 [Example 276, (R)-N-(6-(cyclopropylmethoxy)pyridazin-3-yl)-2-((1S,3R)-4,4-difluoro-3-(6-oxo-1,6-dihydropyridin-3-yl)cyclohexyl)propanamide] | 10 to 100
C[C@@H](C(=O)Nc1ccc(OCC2CC2)cn1)N1CCC[C@@H](c2ccc(=O)[nH]n2)C1 (single isomer, unassigned) [Example 185] | 100 to 3160
C[C@@H](C(=O)Nc1ccc(C2CCCC2)cn1)N1CCC(F)(F)[C@@H](c2ccc(=O)[nH]c2)C1 [Example 14, (S)-N-(5-cyclopentyl-pyridin-2-yl)-2-((S)-4,4-difluoro-3-(6-oxo-1,6-dihydropyridin-3-yl)piperidin-1-yl)propanamide] | 10 to 100
CC(C(=O)Nc1cnc(Oc2ccc(F)cc2CO)cn1)N1CCC(F)(F)[C@@H](c2cc[n+]([O-])cc2)C1 (stereo partly drawn) [Example 274] | 100 to 3160
C[C@@H](C(=O)Nc1ccc(Oc2ccc(F)cc2F)cn1)[C@H]1CCC(F)(F)[C@@H](c2ccc(=O)[nH]c2)C1 [Example 280, (R)-2-((1S,3R)-4,4-difluoro-3-(6-oxo-1,6-dihydropyridin-3-yl)cyclohexyl)-N-(5-(2,4-difluorophenoxy)pyridin-2-yl)propanamide] | ≤ 10
C[C@@H](C(=O)Nc1ccc(F)cn1)N1CCC(F)(F)[C@@H](c2cc[n+]([O-])cc2)C1 [Example 113, 4-((S)-4,4-difluoro-1-((S)-1-((5-fluoropyridin-2-yl)amino)-1-oxopropan-2-yl)piperidin-3-yl)pyridine 1-oxide] | 100 to 3160
C[C@@H](C(=O)Nc1ccc(OCC2CC2)nn1)N1CCC(F)(F)[C@@H](c2ccc(=O)n(CC(F)(F)F)c2)C1 [Example 1, (S)—N-(6-(cyclopropylmethoxy)pyridazin-3-yl)-2-((S)-4,4-difluoro-3-(6-oxo-1-(2,2,2-trifluoroethyl)-1,6-dihydropyridin-3-yl)piperidin-1-yl)propanamide] | ≤ 10
CC(=O)NCc1cc([C@H]2CN([C@@H](C)C(=O)Nc3ccc(Oc4ccc(F)cc4)cn3)CCC2(F)F)c[nH]c1=O (single isomer, unassigned) [Example 245] | ≤ 10
C[C@@H](C(=O)Nc1ccc(Cl)cn1)N1CCC(F)(F)[C@@H](c2c[nH]c(=O)c(N)n2)C1 [Example 107, (S)-2-((R)-3-(6-amino-5-oxo-4,5-dihydropyrazin-2-y1)-4,4-difluoropiperidin-l-y1)-N-(5-chloropyridin-2-yl)propanamide] | 100 to 3160
C[C@@H](C(=O)Nc1ccc(OCC(C)(C)C)nn1)N1CCC(F)(F)[C@@H](c2ccc(=O)[nH]c2)C1 [Example 89, (S)-2-((S)-4,4-difluoro-3-(6-oxo-1,6-dihydropyridin-3-yl)piperidin-1-yl)-N-(6-(neopenlyloxy)pyridazin-3-yl)propanamide] | 100 to 3160
CC(C(=O)Nc1ccc(OC2CCCCC2)cn1)N1CCC(F)(F)[C@@H](c2ccc(=O)[nH]c2)C1 (stereo partly drawn) [Example 24, N-(5-(cyclohexyloxy)pyridin-2-yl)-2-((S)-4,4-difluoro-3-(6-oxo-1,6-dihydropyridin-3-yl)piperidin-1-yl)propanamide] | 100 to 3160
C[C@@H](C(=O)Nc1ccc(/C=C/C2CC2)cn1)N1CCC(F)(F)[C@@H](c2ccc(=O)[nH]c2)C1 [Example 10] | 10 to 100
